Measurements as given in ChEMBL document CHEMBL5390237, “Discovery of Selective Histone Deacetylase 1 and 2 Inhibitors: Screening of a Focused Library Constructed by Click Chemistry, Kinetic Binding Analysis, and Biological Evaluation” (J Med Chem, 2023).

Molecular target: Histone deacetylase 2 (Homo sapiens, UniProt Q92769)
Test: Inhibition of full-length recombinant human C-terminal GST tagged HDAC2 expressed in Sf9 insect cells using aminoluciferin peptide substrate at 100 nM preincubated for 3 hrs followed by substrate addition and measured after 30 mins by HDAC-Glo I/II chemiluminescence assay
Conditions: time 3.5 hrs

Histone deacetylase 2, sequence (Q92769 whole entry): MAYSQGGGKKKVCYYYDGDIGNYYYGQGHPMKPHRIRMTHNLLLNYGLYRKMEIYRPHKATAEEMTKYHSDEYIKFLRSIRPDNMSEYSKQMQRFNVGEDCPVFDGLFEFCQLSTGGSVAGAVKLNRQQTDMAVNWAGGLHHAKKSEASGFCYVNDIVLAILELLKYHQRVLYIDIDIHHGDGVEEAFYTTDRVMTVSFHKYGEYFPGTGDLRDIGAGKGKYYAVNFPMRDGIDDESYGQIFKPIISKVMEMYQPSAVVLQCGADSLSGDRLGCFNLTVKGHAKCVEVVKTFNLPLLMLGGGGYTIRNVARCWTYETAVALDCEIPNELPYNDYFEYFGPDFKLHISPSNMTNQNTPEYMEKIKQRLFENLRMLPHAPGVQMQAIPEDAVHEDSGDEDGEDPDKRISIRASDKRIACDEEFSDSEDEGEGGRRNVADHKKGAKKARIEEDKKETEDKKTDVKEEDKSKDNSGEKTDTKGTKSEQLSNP

inhibition | Structure (SMILES)
1% | Nc1ccc(-c2ccsc2)cc1NC(=O)c1cn(CCc2cccc([N+](=O)[O-])c2)nn1
32% | Nc1ccc(-c2ccc(F)cc2)cc1NC(=O)c1cn(CC(=O)Nc2ccc(F)cc2)nn1
0% | Nc1ccc(-c2cccs2)cc1NC(=O)c1ccc(-c2cn(-c3ccccc3-c3ccccc3)nn2)cc1
25% | Nc1ccc(-c2cccs2)cc1NC(=O)c1ccc(-c2cn(CCc3cccc([N+](=O)[O-])c3)nn2)cc1
0% | Nc1ccc(-c2cccs2)cc1NC(=O)c1cccc(-c2cn(CCc3cccc4ccccc34)nn2)c1
0% | Nc1ccc(-c2ccsc2)cc1NC(=O)c1cn(CC23CC4CC(CC(C4)C2)C3)nn1
0% | Nc1ccc(-c2ccccc2)cc1NC(=O)CCc1cn(CCc2ccccc2C(F)(F)F)nn1
21% | Nc1ccc(-n2cc(CCC(=O)Nc3cc(-c4ccc(F)cc4)ccc3N)nn2)cc1
0% | Nc1ccc(-c2ccccc2)cc1NC(=O)CCc1cn(CCC2CCCC2)nn1
5% | Nc1ccc(-c2cccs2)cc1NC(=O)c1ccc(-c2cn(Cc3ccc(OC(F)(F)F)cc3)nn2)cc1
9% | Nc1ccc(-c2ccccc2)cc1NC(=O)CCc1cn(CCCc2ccccc2)nn1
0% | Nc1ccc(-c2cccnc2)cc1NC(=O)CCc1cn(CCc2ccccn2)nn1
3% | COc1ccccc1CCn1cc(-c2cccc(C(=O)Nc3cc(-c4cccs4)ccc3N)c2)nn1
17% | Nc1ccc(-c2cccs2)cc1NC(=O)CCc1cn(C[S+]([O-])c2ccccc2)nn1 (configuration not stated)
2% | Nc1ccc(-c2cccnc2)cc1NC(=O)CCc1cn(CC23CC4CC(CC(C4)C2)C3)nn1
8% | Nc1ccc(-c2cccs2)cc1NC(=O)c1cn(C[S+]([O-])c2ccccc2)nn1 (configuration not stated)
0% | Nc1ccc(-c2ccc(F)cc2)cc1NC(=O)CCc1cn(-c2ccc(Br)cc2)nn1
42% | Nc1ccc(-c2cccs2)cc1NC(=O)c1ccc(-c2cn(Cc3ccc(C(=O)O)cc3)nn2)cc1
5% | CCc1ccc(Cn2cc(CCC(=O)Nc3cc(-c4cccnc4)ccc3N)nn2)cc1

inhibition | Structure (SMILES)
9% | Nc1ccc(-c2cccs2)cc1NC(=O)CCc1cn(CC23CC4CC(CC(C4)C2)C3)nn1
0% | Nc1ccc(-c2ccccc2)cc1NC(=O)CCc1cn(CCc2ccc(Cl)cc2)nn1
0% | Nc1ccc(-c2ccccc2)cc1NC(=O)c1cn(CCc2ccsc2)nn1
30% | Nc1ccc(-n2cc(-c3cccc(C(=O)Nc4cc(-c5cccs5)ccc4N)c3)nn2)cc1
19% | Nc1ccc(-c2ccsc2)cc1NC(=O)c1cn(Cc2ccc3ccccc3n2)nn1
5% | Nc1ccc(-c2ccc(F)cc2)cc1NC(=O)c1cn(CCc2c[nH]c3ccccc23)nn1
0% | COc1ccc(-n2cc(-c3ccc(C(=O)Nc4cc(-c5cccs5)ccc4N)cc3)nn2)cc1
0% | Nc1ccc(-c2ccsc2)cc1NC(=O)c1cn(Cc2ccc(Oc3ccccc3)cc2)nn1
2% | Nc1ccc(-c2ccc(F)cc2)cc1NC(=O)c1cn(CCC23CC4CC(CC(C4)C2)C3)nn1
19% | Nc1ccc(-c2cccnc2)cc1NC(=O)CCc1cn(CCc2c[nH]c3ccccc23)nn1
18% | Nc1ccc(-c2cccs2)cc1NC(=O)c1ccc(-c2cn(CCc3ccc(Cl)cc3)nn2)cc1
0% | Nc1ccc(-c2cccs2)cc1NC(=O)c1cn(Cc2cccc(C(=O)O)c2)nn1
0% | Nc1ccc(-c2cccs2)cc1NC(=O)c1cccc(-c2cn(CCc3cccc(Cl)c3)nn2)c1
14% | Nc1ccc(-c2cccs2)cc1NC(=O)c1cn(CCc2c[nH]c3ccccc23)nn1
0% | Nc1ccc(-c2cccnc2)cc1NC(=O)CCc1cn(Cc2cccc(-c3ccccc3)c2)nn1
8% | Nc1ccc(-c2ccc(F)cc2)cc1NC(=O)c1cn(-c2ccc([N+](=O)[O-])cc2)nn1
9% | Nc1ccc(-c2cccnc2)cc1NC(=O)CCc1cn(CCc2ccccc2Cl)nn1
0% | Nc1ccc(-c2ccccc2)cc1NC(=O)CCc1cn(Cc2ccc(OC(F)(F)F)cc2)nn1
